Where no end group is shown, it is not given here.

For one assay, the target named is HLA class I molecule. Briefly: HLA class I peptide binding affinity assay (inhibition of 125I-radiolabeled probe peptide binding to purified HLA). The settings on record: Allele A11.01; read-out: Observed Affinity (IC50; (nM)). Further details: species or system human. How it is done:
Epstein-Barr virus (EBV)-transformed homozygous cell lines, fibroblasts, CIR, or 721.22 transfectants are used as sources of HLA class I molecules. […] HLA molecules are purified from lysates by affinity chromatography. The lysates are passed over a column of Sepharose CL-4B beads coupled to an appropriate antibody. […] A 1/25 volume of 2.0 M Tris, pH 6.8, is added to the eluate to reduce the pH to […]. Eluates are then concentrated by centrifugation in Centriprep 30 concentrators (Amicon, Beverly, MA). Protein content is evaluated by a BCA protein assay (Pierce Chemical Co., Rockford, IL) and confirmed by SDS-PAGE.
Following incubation, MHC-peptide complexes are separated from free peptide by gel filtration on 7.8 mm×15 cm TSK200 columns (TosoHaas 16215, Montgomeryville, PA). Because the large size of the radiolabeled peptide used for the DRB1*1501 (DR2w2(31) assay makes separation of bound from unbound peaks more difficult under these conditions, all DRB1*1501 (DR2w2(31) assays were performed using a 7.8 mm×30 cm TSK2000 column eluted at 0.6 mLs/min. The eluate from the TSK columns is passed through a Beckman 170 radioisotope detector, and radioactivity is plotted and integrated using a Hewlett-Packard 3396A integrator, and the fraction of peptide bound is determined.
Radiolabeled peptides are iodinated using the chloramine-T method. […] All subsequent inhibition and direct binding assays are performed using these HLA concentrations.
Since under these conditions [label]<[HLA] and IC50≥[HLA], the measured IC50 values are reasonable approximations of the true KD values. […] For database purposes, and inter-experiment comparisons, relative binding values are compiled. These values can subsequently be converted back into IC50 nM values by dividing the IC50 nM of the positive controls for inhibition by the relative binding of the peptide of interest.
HLA binding assays were used to evaluate either the affinity of interaction of a given epitope with a selected HLA molecule or the stability.
The measurements are plotted against the predicted affinity in FIG. 1.
Broadly, the IC50 is the concentration that inhibits the measured activity by half. With AMTTSSSQK, the IC50 worked out at 162 nM.

With KISNWSLKK, the IC50 came to 9.8 nM.

Turning to SAMTTSSSQK, the IC50 worked out at 15.8 nM.

Take SLKKVPALK: the IC50 was 129 nM.

Still in this assay, the particulars now being: allele A01.01; read-out: Observed Affinity (IC50; (nM)).
As to `CC[C@H](C)[C@H](NC(=O)[C@H](CC(C)C)NC(=O)[C@H](CCC(N)=O)NC(=O)[C@@H](NC(=O)[C@@H](NC(=O)[C@H](CO)NC(=O)[C@@H](NC(=O)[C@H](CC(C)C)NC(=O)[C@@H](N)CS)[C@@H](C)O)[C@@H](C)O)C(C)C)C(=O)N[C@@H](CCSC)C(=O)O`, the IC50 worked out at 11000 nM.

For `CC[C@H](C)[C@H](N)C(=O)N[C@@H](CC(C)C)C(=O)N[C@@H](CC(=O)O)C(=O)N[C@H](C(=O)N[C@@H](C)C(=O)NCC(=O)N[C@@H](CCCCN)C(=O)N[C@@H](CCC(=O)O)C(=O)N[C@@H](CCC(=O)O)C(=O)N[C@@H](Cc1ccc(O)cc1)C(=O)O)[C@@H](C)O`, the IC50 was 14.3 nM.

For the compound `CSCC[C@H](N)C(=O)N[C@@H](C)C(=O)N[C@@H](CC(N)=O)C(=O)NCC(=O)N[C@@H](CO)C(=O)N[C@@H](CC(C)C)C(=O)N[C@@H](CC(C)C)C(=O)N[C@@H](CC(N)=O)C(=O)N[C@@H](Cc1ccc(O)cc1)C(=O)O`, the IC50 turned out to be 439 nM.

Regarding CLSFLSSWDY, the IC50 is 987 nM.

For GSNEVTTRY, the IC50 came to 606 nM.

For the compound ILDTAGHEEY, the IC50 is 64.2 nM.

Consider ILDTAGLEEY, for which the IC50 is 8.6 nM.

Regarding ILDTAGREEY, the IC50 is 7 nM.

With LSFLSSWDY, the IC50 was determined as 52.9 nM.

For the compound LTSTVQLIM, the IC50 was 2890 nM.

Regarding MSDTTYKIY, the IC50 worked out at 10.2 nM.

With TGSNEVTTRY, the IC50 turned out to be 15500 nM.

Regarding TTNAFSGEY, the IC50 worked out at 4.4 nM.

As to VMSDTTYKIY, the IC50 amounted to 376 nM.

Still in this assay, the particulars now being: allele A02.01; read-out: Observed Affinity (IC50; (nM)).
As for `CC[C@H](C)[C@H](NC(=O)[C@H](CC(C)C)NC(=O)[C@H](CCC(N)=O)NC(=O)[C@@H](NC(=O)[C@@H](NC(=O)[C@H](CO)NC(=O)[C@@H](NC(=O)[C@H](CC(C)C)NC(=O)[C@@H](N)CS)[C@@H](C)O)[C@@H](C)O)C(C)C)C(=O)N[C@@H](CCSC)C(=O)O`, the IC50 was 716 nM.

As for `CC(C)C[C@H](NC(=O)[C@H](CO)NC(=O)[C@H](CCCCN)NC(=O)[C@H](CC(C)C)NC(=O)[C@@H](NC(=O)[C@H](CO)NC(=O)[C@@H]1CCCN1C(=O)[C@H](CC(C)C)NC(=O)[C@@H](N)Cc1ccccc1)[C@@H](C)O)C(=O)O`, the IC50 was 21 nM.

Consider `CC[C@H](C)[C@H](N)C(=O)N[C@H](C(=O)N[C@H](C(=O)N[C@@H](CCC(=O)O)C(=O)N[C@@H](Cc1ccccc1)C(=O)N[C@@H](CCSC)C(=O)N[C@H](C(=O)N[C@@H](Cc1ccc(O)cc1)C(=O)NCC(=O)N[C@@H](CC(N)=O)C(=O)O)[C@@H](C)O)[C@@H](C)CC)[C@@H](C)CC`, for which the IC50 is 1550 nM.

Regarding `CC[C@H](C)[C@H](NC(=O)[C@@H]1CCCN1C(=O)[C@H](CC(C)C)NC(=O)[C@@H](N)CC(C)C)C(=O)N1CCC[C@H]1C(=O)N1CCC[C@H]1C(=O)N[C@@H](CC(C)C)C(=O)N[C@@H](CO)C(=O)N1CCC[C@H]1C(=O)N[C@@H](CO)C(=O)O`, the IC50 came out at 449 nM.

For the compound AFSGEYIPTV, the IC50 turned out to be 781 nM.

For AIQPVLWTT, the half-inhibitory concentration (IC50) was found to be 8.1 nM.

On to ALAPTLTHM, for which the IC50 stood at 59 nM.

As for ALAPTLTHML, the IC50 turned out to be 39 nM.

For the compound ALEEKKGNYV, the IC50 turned out to be 141 nM.

In the case of ALFFFFFET, the IC50 turned out to be 471 nM.

Consider ALMSAMTTS, for which the IC50 amounted to 139 nM.

As for ALQPLQPHA, the IC50 stood at 604 nM.

Regarding ALWECSLPQA, the IC50 amounted to 9 nM.

In the case of AQAGVQWRSL, the IC50 was 670 nM.

Turning to FALCGFWQI, the IC50 was 0.4 nM.

In the case of FELLPIPPL, the IC50 amounted to 553 nM.

In the case of FELLSTPPL, the IC50 was determined as 225 nM.

Consider FFFETKSCSV, for which the IC50 worked out at 61.2 nM.

Regarding FFFSVIFST, the IC50 was determined as 4560 nM.

As to FILMELMAGG, the IC50 was found to be 1580 nM.

Turning to FKLFSCLSFL, the IC50 stood at 663 nM.

FLLALWECS: the IC50 came out at 93.2 nM.

Turning to FLSSWDYRRM, the IC50 came to 324 nM.

As to FQNGKMALS [FQNGKMALS], the IC50 was 3280 nM.

Take FVMSDTTYKI: the IC50 worked out at 62.4 nM.

For GLSISCTTL, the IC50 came to 114 nM.

On to GMNQRPILT, for which the IC50 stood at 3030 nM.

With GMNWRPILT, the IC50 was determined as 1130 nM.

On to HMNIANLLGA, for which the IC50 was found to be 430 nM.

As to IANLLGACTI, the IC50 was determined as 6420 nM.

IIEFMTYGNL: the IC50 turned out to be 9700 nM.

With IIEYCFYGDL, the IC50 came to 1090 nM.

IIIEFMTYG: the IC50 was 779 nM.

As to ILIRKAMTV, the IC50 came to 19.5 nM.

With ILLPEDTPPL, the IC50 worked out at 6.7 nM.

For the compound ILMELMAGGD, the IC50 came out at 3450 nM.

Take IMSLWGLVS: the IC50 amounted to 7320 nM.

On to ITAFFFCWI, for which the IC50 turned out to be 7490 nM.

ITAFFLLDI: the IC50 is 78.7 nM.

On to IVSRTLLLV, for which the IC50 is 12.7 nM.

Take KITEQEKDFL: the IC50 was determined as 1400 nM.

For KKLMLLRLNL, the IC50 stood at 289 nM.

On to KLFSCLSFLS, for which the IC50 was determined as 0.6 nM.

KQWSSVTSL: the IC50 is 26.5 nM.

For the compound KSLVRLSSCV, the IC50 came out at 280 nM.

As to LATEKSRWS, the IC50 worked out at 61000 nM.

As to LATEKSRWSG, the IC50 was found to be 23300 nM.

On to LIMQLMPFG, for which the IC50 turned out to be 3510 nM.

In the case of LIVSRTLLLV, the IC50 stood at 10900 nM.

As for LLDILDTAGL, the IC50 stood at 716 nM.

With LLGRNSFEVC, the IC50 is 2080 nM.

LLPEDTPPL: the IC50 amounted to 2.8 nM.

As to LLQVTQTSFA, the IC50 is 677 nM.

Take LLSTPPLSPS: the IC50 came to 1770 nM.

With LLYITAFFLL, the IC50 came out at 323 nM.

For LQEFDVQEAL [LQEFDVQEAL], the IC50 turned out to be 50300 nM.

For LQVTQTSFAL [LQVTQTSFAL], the IC50 came out at 718 nM.

Take LVRLSSCVPV: the IC50 amounted to 1240 nM.

For LVVVGADGV, the IC50 was found to be 1190 nM.

As to MLTGPPARV, the IC50 was 10.6 nM.

In the case of MSVCFFFFSV, the IC50 turned out to be 1710 nM.

Consider NSFEVHVCA, for which the IC50 worked out at 503 nM.

Regarding NVVPLCDLL, the IC50 stood at 3030 nM.

On to NVVPLCDLLL, for which the IC50 was 1370 nM.

As to NVVPLNDLL, the IC50 was found to be 2900 nM.

With NVVPLNDLLL, the IC50 amounted to 4190 nM.

For the compound NVVPLSDLL, the IC50 was found to be 916 nM.

On to NVVPLSDLLL, for which the IC50 is 741 nM.

As for NVVPLYGLL, the IC50 came out at 10500 nM.

As to PLNDLLLEML, the IC50 is 12000 nM.

PLSDLLLEML: the IC50 came to 6470 nM.

Consider PLYGLLLEML, for which the IC50 is 797 nM.

On to QLIMQLMPFG, for which the IC50 turned out to be 5930 nM.

Turning to QQQSDLQPPA, the IC50 worked out at 646 nM.

Regarding QQSDLQPPA, the IC50 worked out at 70 nM.

As for QTGVMICAYL, the IC50 was determined as 9760 nM.

As to RLSSCVPVAL [RLSSCVPVAL], the IC50 stood at 54.2 nM.

Regarding RLWHLLLQV, the IC50 amounted to 1.3 nM.

For RLWHLLLQVT, the 50% inhibitory concentration (IC50) was determined as 50.9 nM.

Take SLVRLSSCV: the IC50 was 29.9 nM.

For the compound SLYIVGFYG, the IC50 is 1060 nM.

Take STVQLIMQL: the IC50 was determined as 8540 nM.

In the case of TIGGPTLVII, the IC50 worked out at 10700 nM.

On to TLQRSSLWCL, for which the IC50 was 118 nM.

On to TQISSATEYL, for which the IC50 was found to be 2640 nM.

On to VMSDTTYKI, for which the IC50 was determined as 19.6 nM.

On to VQWRSLGSL, for which the IC50 worked out at 4730 nM.

VRLSSCVPVA: the IC50 stood at 1210 nM.

Staying with this assay, now noted: allele B08.01; read-out: Observed Affinity (IC50; (nM)).
Take `CC(C)C[C@H](NC(=O)[C@H](CO)NC(=O)[C@H](CCCCN)NC(=O)[C@H](CC(C)C)NC(=O)[C@@H](NC(=O)[C@H](CO)NC(=O)[C@@H]1CCCN1C(=O)[C@H](CC(C)C)NC(=O)[C@@H](N)Cc1ccccc1)[C@@H](C)O)C(=O)O`: the IC50 is 1970 nM.

In the case of FELLSTPPL, the IC50 was 3180 nM.

LATEKSRWS: the IC50 amounted to 37000 nM.

On to LATEKSRWSG, for which the IC50 was 46600 nM.

Consider LKKLRSPL, for which the IC50 stood at 0.6 nM.

The record behind these values is patent publication US20230414735A1, “NEOANTIGENS AND METHODS OF THEIR USE” (priority 2016, published 2023).
